Experimental data: ChEMBL document CHEMBL5357058, “Norterpene Cyclic Peroxides from the Marine Sponge Diacarnus spinipoculum, Inhibitors of Transient Receptor Potential Ankyrin 1” (J Nat Prod, 2024)

molecular target: Transient receptor potential cation channel subfamily A member 1 (Homo sapiens, UniProt O75762); assay: Inhibition of human TRPA1 overexpressed in HEK293 cells assessed as reduction in AITC-induced calcium mobilization preincubated for 5 mins followed by AITC addition by FLIPR assay; assay type: cell-based
Sequence (O75762 whole entry): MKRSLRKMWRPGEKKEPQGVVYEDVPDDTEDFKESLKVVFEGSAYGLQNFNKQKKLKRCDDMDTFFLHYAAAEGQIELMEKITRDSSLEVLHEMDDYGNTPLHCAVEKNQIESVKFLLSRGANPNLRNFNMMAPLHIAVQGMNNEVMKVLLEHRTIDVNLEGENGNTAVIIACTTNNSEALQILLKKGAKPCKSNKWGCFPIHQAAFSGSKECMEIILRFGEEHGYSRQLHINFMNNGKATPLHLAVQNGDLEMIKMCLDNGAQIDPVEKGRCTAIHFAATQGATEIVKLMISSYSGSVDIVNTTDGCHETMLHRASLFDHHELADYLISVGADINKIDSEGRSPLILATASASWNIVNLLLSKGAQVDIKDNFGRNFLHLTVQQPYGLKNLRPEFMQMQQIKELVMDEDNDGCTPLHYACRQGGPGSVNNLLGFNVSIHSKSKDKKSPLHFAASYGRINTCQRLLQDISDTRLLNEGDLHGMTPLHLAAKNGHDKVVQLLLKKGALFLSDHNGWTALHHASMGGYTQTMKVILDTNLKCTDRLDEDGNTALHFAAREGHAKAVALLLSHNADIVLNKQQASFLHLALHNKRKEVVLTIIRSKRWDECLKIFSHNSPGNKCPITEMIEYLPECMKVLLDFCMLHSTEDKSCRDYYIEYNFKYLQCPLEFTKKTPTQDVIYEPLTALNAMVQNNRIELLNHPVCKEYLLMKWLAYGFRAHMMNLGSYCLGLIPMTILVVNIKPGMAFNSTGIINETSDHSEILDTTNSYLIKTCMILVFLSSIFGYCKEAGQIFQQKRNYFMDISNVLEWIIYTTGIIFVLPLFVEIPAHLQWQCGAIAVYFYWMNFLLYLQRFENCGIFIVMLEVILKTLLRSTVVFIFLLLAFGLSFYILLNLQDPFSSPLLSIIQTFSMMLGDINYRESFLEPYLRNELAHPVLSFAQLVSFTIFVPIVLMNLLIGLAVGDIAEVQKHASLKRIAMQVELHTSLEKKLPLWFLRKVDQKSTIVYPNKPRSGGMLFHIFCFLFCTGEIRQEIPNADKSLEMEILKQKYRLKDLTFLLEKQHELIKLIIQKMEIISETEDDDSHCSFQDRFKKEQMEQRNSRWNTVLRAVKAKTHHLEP

| Structure (SMILES) | IC50 |
| --- | --- |
| C=C1CCCC(C)(C)C1CC[C@]1(C)CC[C@H]([C@@H](C)C(=O)OC)OO1 (some centres not stated) [NUAPAPUIN B] | 18.9 µM |
| CC1=C(CC/C(C)=C/CC[C@]2(C)CC[C@@H]([C@H](C)C(=O)O)OO2)C(C)(C)CCC1 | 5.6 µM |
| COC(=O)[C@H](C)[C@@H]1CC[C@@](C)(CCC2=C(C)C(OC)CCC2(C)C)OO1 (mixture of isomers) | > 30 µM |
| CC1=C(CC/C(C)=C/CC[C@@]2(C)CC[C@@H]([C@H](C)C(=O)O)OO2)C(C)(C)CCC1 [EPIMUQUBILIN A] | 4.8 µM |
| COC(=O)[C@H](C)[C@@H]1CC[C@@](C)(CCC2=C(C)CCCC2(C)C)OO1 | 29.3 µM |
| CC1=C(CC/C(C)=C/CC[C@@]2(C)CC[C@@H]([C@H](C)C(=O)O)OO2)C(C)(C)CCC1=O | 15.3 µM |
| COC(=O)[C@H](C)[C@H]1CC[C@@](C)(CCC2=C(C)C(O)CCC2(C)C)OO1 (mixture of isomers) | > 30 µM |
| CC(=O)CCCC(C)(C)C(=O)CC/C(C)=C/CC[C@]1(C)CC[C@H]([C@@H](C)C(=O)O)OO1 [(+)-MUQUBILONE B] | > 30 µM |
| COC(=O)[C@H](C)[C@H]1CC[C@@](C)(CCC2=C(C)C(OC)CCC2(C)C)OO1 (mixture of isomers) | > 30 µM |
| C=C1CCCC(C)(C)C1CC[C@]1(C)CC[C@@H]([C@@H](C)C(=O)OC)OO1 (some centres not stated) | > 30 µM |
| CC1=C(CC[C@]2(C)CC[C@H]([C@@H](C)C(=O)O)OO2)C(C)(C)CCC1 | > 30 µM |
| C=C1CCC[C@H]2[C@](C)(CC[C@@]3(C)CC[C@H]([C@@H](C)C(=O)O)OO3)[C@@H](C)CC[C@]12C | 2 µM |
| COC(=O)[C@H](C)[C@H]1CC[C@@](C)(CCC2=C(C)CCCC2(C)C)OO1 [NUAPAPUIN A METHYL ESTER] | 14.1 µM |
| COC(=O)[C@H](C)[C@@H]1CC[C@@](C)(CCC2=C(C)C(O)CCC2(C)C)OO1 (mixture of isomers) | > 30 µM |
| C=C1CCC[C@H]2[C@](C)(CC[C@@]3(C)CC[C@H]([C@@H](C)C(=O)OC)OO3)[C@@H](C)CC[C@]12C | 13.5 µM |
| COC(=O)[C@H](C)[C@@H]1CC[C@@](C)(CCC2=C(C)C(=O)CCC2(C)C)OO1 [METHYL DIACARNOATE A] | > 30 µM |
| COC(=O)[C@H](C)[C@H]1CC[C@@](C)(CCC2=C(C)C(=O)CCC2(C)C)OO1 [DIACARPEROXIDE A] | 22.1 µM |
